Data on two compounds can be found in patent US20100216779A1 (GLAXOSMITHKLINE LLC, priority 2007, published 2010).

pIC50: −log10 of the molar value. A value given as a limit tells only on which side of the number the result lay.

One assay concerns COLO205 (colon). The assay is described as follows: Inhibition of cell proliferation, CellTiter-Glo, COLO205. The class given is cell-based. The following applies: Homo sapiens, COLO 205, 72 h. In outline:
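Exponentially growing COLO205 cells in medium with 10% FBS were plated below 2000 cells/well at 37 °C, 5% CO2. Untreated wells served as controls.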
On the technique in general: In ATP-based viability assays light output follows the ATP content of the culture.

For assay [1], the target named is T1, human IGF-1R (NIH-3T3 cells over expressing human IGF-1R) (Homo sapiens, UniProt P08069).
T1 construct: expressed in transfected cells; host or cells: NIH-3T3 (mouse fibroblasts)
The assay is described as follows: IGF-1R cellular autophosphorylation (DELFIA). The following applies: IGF-1 stimulated. Format: cell-based. In outline: (§1)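 Autophosphorylation of IGF-1R or IR is measured in NIH-3T3 lines overexpressing each human receptor after 2 h compound pretreatment and a 15 min ligand challenge (IGF-1 30 ng/mL; insulin 3 ug/mL). Fluorescence is normalised to 100% stimulation.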

Another assay has as its target T2, human IGF1R (hIGF1R) (Homo sapiens, UniProt P08069).
T2 construct: containing amino acid residues 957-1367 of human IGF1R; made in house; host or cells: Sf9 cells, baculovirus
Briefly: IGF1R TR-FRET assay using peptide as the phosphoacceptor. Format: biochemical. The note with it: 10 μM ATP, 0.5 nM activated enzyme. Here is the method:
A. IR and IGF1 R Time Resolved Fluorescence Resonance Energy Transfer (TR-FRET) Assay Using Peptide as the Phosphoacceptor
Substrate phosphorylation assays are carried out as follows:
The Source of Substrate Peptide
The biotinylated substrate peptide, (sequence-Biotin-aminohexyl-AEEEEY*[…]-NH2) SEQ. ID. 1 is purchased from QCB, Inc. (Hopkinton, Mass.). Purity is determined by HPLC. The calculated molecular mass of the peptide is 2216 dalton. Tyrosine phosphorylation by human IGF1R (hIGF1R) or human IR (hIR) occurs as indicated (Y*) in the peptide sequence described. Solid peptide sample is dissolved to approximately 1 mM in DMSO, aliquoted, and stored at −20° C. until use. True peptide concentration is determined by amino acid analysis.
The Source of Enzyme: • hIGF1R: GST-rTEV-IGF-1R (957-1367) containing amino acid residues 957-1367 of human IGF1R (as annotated by National Center for Biotechnology Information (NCBI) accession number NP_000866) is purified from a baculovirus expression system in Sf9 cells using Glutathione Sepharose 4FF column chromatography followed by Sephadex-200 size exclusion column chromatography. Enzyme purity of approximately 95% is achieved. Samples, in 25 mM Tris-HCl, 250 mM NaCl, 5% glycerol, 1 mM DTT, pH 7.5, are stored at −80° C. until use. • hIR: GST-rTEV-IR(979-1382) containing amino acid residues 979-1382 of human IR (as annotated by NCBI accession number NP_000199) is expressed and purified by the same process as hIGF1R. Enzyme purity of approximately 92% is achieved. Samples, in 25 mM Tris-HCl, 250 mM NaCl, 5% glycerol, 1 mM DTT, pH 7.5, are stored at −80° C. until use.
Activation of hIGF1R and hIR by Autophosphorylation: • hIGF1R: Activation of GST-rTEV-IGF-1R(957-1367) is achieved by a 4 minute incubation of hIGF1R (2.7 μM final) with 2 mM ATP in 50 mM HEPES, 20 mM MgCl2, 0.1 mg/mL BSA, at room temperature. Autophosphorylation is stopped by addition of EDTA (to 100 mM final). Aliquoted samples are flash frozen in liquid nitrogen and stored at −80° C. until use. • hIR: Activation of […] is achieved by a 5 minute incubation of hIR (2.7 μM final) with 2 mM ATP in 100 mM HEPES, 10 mM MgCl2, 0.1 mg/mL BSA, at room temperature. Autophosphorylation is stopped by addition of EDTA (to 100 mM final). Aliquoted samples are flash frozen in liquid nitrogen and stored at −80° C. until use. • Kinase Assay of Purified hIGF1R or hIR:
Assays are performed in 384-well (Greiner, Catalog No. 784076) microtiter plates. Reaction buffer (50 mM HEPES buffer, pH 7.5; 10 mM MgCl2; 3 mM DTT; 1 mM CHAPS; 0.1 mg/mL BSA) for peptide phosphorylation (10 μl volume) contained, in final concentrations, 500 nM biotinylated peptide substrate; 10 μM ATP; and purified, activated hIGF1R or hIR (0.5 nM). Some compounds were initially assayed against IGF1R in buffer without DTT or CHAPS. […] Compounds, titrated in DMSO, are evaluated at eleven concentrations ranging from 50 μM to 0.2 nM. […] No effect on activity relative to controls without DMSO is observed for hIGF1R or IR at these DMSO amounts. Reactions are incubated for 1 hour at room temperature and are stopped by a 5 μl addition of EDTA (to 33 mM). A further addition of 5 μl detection reagents (for final 7 nM Streptavidin-APC (PerkinElmer #CR130-150), 1 nM Europium-labeled anti-phosphotyrosine monoclonal antibody (PerkinElmer #AD0067), added in reaction buffer (without DTT), is required for signal generation. After 30 minutes, signal is read on PerkinElmer Viewlux microplate imager or Wallac Victor fluorometer.
Data were fitted to the curve described by:
y=((Vmax*x)/(K+x)) where • Vmax is the upper asymptote and • K is the IC50.
The results for each tested compound were recorded as pIC50 calculated as follows: […]
A general note: TR-FRET usually uses a lanthanide donor and a delayed reading to cut background.

The next assay deals with T3, human IR (hIR) (Homo sapiens, UniProt P06213).
T3 construct: containing amino acid residues 979-1382 of human IR; GST (N); rTEV protease site (linker between GST and kinase) (N); made in house; host or cells: Sf9 cells, baculovirus (same process as hIGF1R)
Briefly: IR TR-FRET assay using peptide as the phosphoacceptor. The class given is biochemical. The following applies: 10 μM ATP, 0.5 nM activated enzyme.

The target of assay [2] is T4, IR (NIH-3T3 cells over expressing human IGF-1R or IR) (Homo sapiens, UniProt P06213).
T4 construct: expressed in transfected cells; host or cells: NIH-3T3 (mouse fibroblasts)
Briefly: IR cellular autophosphorylation (DELFIA). The class given is cell-based. The note with it: NIH-3T3 cells over expressing IR, insulin stimulated. Summed up:
as §1

For assay [3], the system named is NCI-H929 (multiple myeloma). Briefly: Inhibition of cell proliferation, CellTiter-Glo, NCI-H929. The class given is cell-based. The following applies: Homo sapiens, 72 h. In outline:
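Cells were grown in medium with 10% FBS at 37° C, 5% CO2. Cell number was read as CellTiter-Glo luminescence (cellular ATP), with untreated wells as control.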

T3 sequence (P06213 979-1382): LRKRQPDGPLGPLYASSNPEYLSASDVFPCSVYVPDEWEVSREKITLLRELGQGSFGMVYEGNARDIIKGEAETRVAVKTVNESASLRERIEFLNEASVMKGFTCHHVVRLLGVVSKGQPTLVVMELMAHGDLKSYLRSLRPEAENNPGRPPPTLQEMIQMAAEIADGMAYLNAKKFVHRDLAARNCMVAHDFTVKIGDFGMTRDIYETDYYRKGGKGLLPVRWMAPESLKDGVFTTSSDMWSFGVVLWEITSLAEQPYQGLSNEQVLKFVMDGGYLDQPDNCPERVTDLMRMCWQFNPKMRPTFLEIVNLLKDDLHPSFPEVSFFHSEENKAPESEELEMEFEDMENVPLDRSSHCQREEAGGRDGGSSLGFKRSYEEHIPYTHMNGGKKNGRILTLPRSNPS
T2 sequence (P08069 957-1367): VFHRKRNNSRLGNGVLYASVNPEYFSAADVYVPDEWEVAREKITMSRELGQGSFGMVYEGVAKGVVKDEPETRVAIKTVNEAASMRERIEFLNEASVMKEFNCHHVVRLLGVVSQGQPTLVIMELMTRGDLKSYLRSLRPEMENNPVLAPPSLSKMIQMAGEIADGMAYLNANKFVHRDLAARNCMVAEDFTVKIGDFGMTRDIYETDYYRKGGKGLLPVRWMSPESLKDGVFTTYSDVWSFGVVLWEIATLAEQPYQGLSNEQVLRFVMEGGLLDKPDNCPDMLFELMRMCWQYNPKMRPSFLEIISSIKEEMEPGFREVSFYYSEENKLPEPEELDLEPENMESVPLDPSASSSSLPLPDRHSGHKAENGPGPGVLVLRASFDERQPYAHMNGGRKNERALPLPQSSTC
T1 sequence (P08069 31-1367): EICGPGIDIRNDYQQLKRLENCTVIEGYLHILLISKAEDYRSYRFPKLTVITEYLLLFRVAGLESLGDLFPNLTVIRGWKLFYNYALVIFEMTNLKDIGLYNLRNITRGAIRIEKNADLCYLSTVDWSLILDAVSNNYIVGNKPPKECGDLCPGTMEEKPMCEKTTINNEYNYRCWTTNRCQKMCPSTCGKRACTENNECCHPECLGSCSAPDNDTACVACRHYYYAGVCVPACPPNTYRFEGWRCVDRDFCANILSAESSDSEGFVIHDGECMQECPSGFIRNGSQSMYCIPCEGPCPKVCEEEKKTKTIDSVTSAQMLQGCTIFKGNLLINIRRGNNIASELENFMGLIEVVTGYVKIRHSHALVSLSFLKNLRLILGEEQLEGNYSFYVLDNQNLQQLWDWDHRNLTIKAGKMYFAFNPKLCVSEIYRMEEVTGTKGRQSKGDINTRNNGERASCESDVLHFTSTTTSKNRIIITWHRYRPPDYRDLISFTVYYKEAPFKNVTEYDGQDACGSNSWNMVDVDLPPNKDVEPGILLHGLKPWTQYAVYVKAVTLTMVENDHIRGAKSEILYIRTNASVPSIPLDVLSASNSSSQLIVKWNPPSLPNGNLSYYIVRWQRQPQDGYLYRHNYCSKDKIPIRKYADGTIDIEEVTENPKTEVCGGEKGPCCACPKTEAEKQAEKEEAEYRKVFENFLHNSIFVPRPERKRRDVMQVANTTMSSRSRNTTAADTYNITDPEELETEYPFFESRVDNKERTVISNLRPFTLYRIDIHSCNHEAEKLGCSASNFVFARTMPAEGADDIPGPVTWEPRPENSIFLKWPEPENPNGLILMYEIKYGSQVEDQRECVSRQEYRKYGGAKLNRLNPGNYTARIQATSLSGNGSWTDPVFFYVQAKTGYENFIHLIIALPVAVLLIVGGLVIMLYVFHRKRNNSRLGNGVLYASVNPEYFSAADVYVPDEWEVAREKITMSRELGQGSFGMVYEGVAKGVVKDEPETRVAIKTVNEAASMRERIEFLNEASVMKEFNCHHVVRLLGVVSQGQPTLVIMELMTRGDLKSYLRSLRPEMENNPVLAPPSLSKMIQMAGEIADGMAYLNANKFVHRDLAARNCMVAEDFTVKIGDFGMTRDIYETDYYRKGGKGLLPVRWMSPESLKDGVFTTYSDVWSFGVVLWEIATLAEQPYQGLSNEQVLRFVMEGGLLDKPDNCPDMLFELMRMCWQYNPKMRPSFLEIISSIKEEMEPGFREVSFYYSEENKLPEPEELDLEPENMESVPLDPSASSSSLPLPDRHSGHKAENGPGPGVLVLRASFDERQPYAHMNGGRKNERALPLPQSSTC
T4 sequence (P06213 28-1382): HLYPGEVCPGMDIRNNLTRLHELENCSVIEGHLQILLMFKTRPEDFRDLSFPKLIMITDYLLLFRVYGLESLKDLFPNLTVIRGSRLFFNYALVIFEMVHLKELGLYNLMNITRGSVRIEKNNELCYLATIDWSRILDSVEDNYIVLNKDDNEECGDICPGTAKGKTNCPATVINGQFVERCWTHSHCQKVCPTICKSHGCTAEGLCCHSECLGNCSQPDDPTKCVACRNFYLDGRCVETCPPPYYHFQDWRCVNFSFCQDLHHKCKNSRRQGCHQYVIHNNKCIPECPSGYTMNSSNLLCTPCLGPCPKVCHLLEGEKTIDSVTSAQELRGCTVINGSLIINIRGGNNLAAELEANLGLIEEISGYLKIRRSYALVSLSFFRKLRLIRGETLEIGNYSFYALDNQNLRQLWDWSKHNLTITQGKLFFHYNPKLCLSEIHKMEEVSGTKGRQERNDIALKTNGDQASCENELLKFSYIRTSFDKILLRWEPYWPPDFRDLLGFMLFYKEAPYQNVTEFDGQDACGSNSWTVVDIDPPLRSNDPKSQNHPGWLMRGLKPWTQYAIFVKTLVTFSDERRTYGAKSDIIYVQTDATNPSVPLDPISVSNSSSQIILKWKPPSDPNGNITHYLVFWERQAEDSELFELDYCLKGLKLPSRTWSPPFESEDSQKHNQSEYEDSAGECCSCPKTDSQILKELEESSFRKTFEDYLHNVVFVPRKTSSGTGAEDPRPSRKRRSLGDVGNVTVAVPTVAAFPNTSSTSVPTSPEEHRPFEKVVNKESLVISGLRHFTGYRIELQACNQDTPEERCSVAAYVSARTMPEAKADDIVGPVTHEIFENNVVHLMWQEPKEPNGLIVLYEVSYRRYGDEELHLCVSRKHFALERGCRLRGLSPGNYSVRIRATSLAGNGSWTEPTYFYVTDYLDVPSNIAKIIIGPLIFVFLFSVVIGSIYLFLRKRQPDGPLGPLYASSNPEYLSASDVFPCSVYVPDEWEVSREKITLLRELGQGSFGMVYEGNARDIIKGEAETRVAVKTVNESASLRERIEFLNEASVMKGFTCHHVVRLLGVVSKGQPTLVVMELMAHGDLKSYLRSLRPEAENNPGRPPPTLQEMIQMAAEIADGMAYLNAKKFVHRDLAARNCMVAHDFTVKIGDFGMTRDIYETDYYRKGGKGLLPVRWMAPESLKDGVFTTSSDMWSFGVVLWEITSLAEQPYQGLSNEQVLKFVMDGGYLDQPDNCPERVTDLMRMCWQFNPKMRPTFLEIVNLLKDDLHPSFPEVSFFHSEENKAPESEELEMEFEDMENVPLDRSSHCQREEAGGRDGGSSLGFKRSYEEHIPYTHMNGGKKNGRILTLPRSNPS
Method for human IR (hIR): Reaction buffer (50 mM HEPES buffer, pH 7.5; 10 mM MgCl2; 3 mM DTT; 1 mM CHAPS; 0.1 mg/mL BSA) for peptide phosphorylation (10 μl volume) contained, in final concentrations, 500 nM biotinylated peptide substrate; 10 μM ATP; and purified, activated hIGF1R or hIR (0.5 nM). Some compounds were initially assayed against IGF1R in buffer without DTT or CHAPS. […] Compounds, titrated in DMSO, are evaluated at eleven concentrations ranging from 50 μM to 0.2 nM. […] Reactions are incubated for 1 hour at room temperature and are stopped by a 5 μl addition of EDTA (to 33 mM). A further addition of 5 μl detection reagents (for final 7 nM Streptavidin-APC (PerkinElmer #CR130-150), 1 nM Europium-labeled anti-phosphotyrosine monoclonal antibody (PerkinElmer #AD0067), added in reaction buffer (without DTT), is required for signal generation. After 30 minutes, signal is read on PerkinElmer Viewlux microplate imager or Wallac Victor fluorometer.
The data for compound concentration responses were plotted as % Inhibition, calculated with the data reduction formula 100*(1-[(U1-C2)/(C1-C2)]), versus concentration of compound, where • U is the unknown value, • C1 is the average control value obtained for DMSO only, and
C2 is the average control value obtained for reactions stopped with EDTA at t=0.

Usually pIC50 stands for the IC50 on a negative log10 scale, so that one unit is a factor of ten. High values mean a small IC50, low ones a large IC50. On to `CCOc1cc(N2CCC(CCS(C)(=O)=O)CC2)c(CC)cc1Nc1nccc(-c2c(-c3ccc(OCC)c(C(=O)Nc4c(F)cccc4F)c3)nc3ccccn23)n1` [Example 208, N-(2,6-difluorophenyl)-5-(3-{2-[(5-ethyl-2-(ethyloxy)-4-{4-[2-(methylsulfonyl)ethyl]-1-piperidinyl}phenyl)amino]-4-pyrimidinyl}imidazo[1,2-a]pyridin-2-yl)-2-(ethyloxy)benzamide], for which the pIC50 in the assay on COLO205 (colon) is above 6.60; in assay [1], above 7.00; in assay [2], above 7.00; in assay [3] it was above 6.60. For the same compound, the “IGF-1R pIC50” value on human IGF1R (hIGF1R) was “++ (at least one average pIC50 measurement greater than 6 against the kinase tested but no average measurement greater than pIC50 of 7)”. Also, the “IR pIC50” value on human IR (hIR) was “++ (at least one average pIC50 measurement greater than 6 against the kinase tested but no average measurement greater than pIC50 of 7)”.
With `CCOc1ccc(-c2nc3ccccn3c2-c2ccnc(Nc3cc(Cl)c(N4CCN(CCS(C)(=O)=O)CC4)cc3OC)n2)cc1C(=O)Nc1c(F)cccc1F` [Example 212], the pIC50 in the assay with COLO205 (colon) was above 6.60; in assay [1] it was above 7.00; in assay [2], above 7.00; in assay [3] it was above 6.60. The IC50 on human IGF1R (hIGF1R) (read-out: IGF-1R pIC50 (converted)) and on human IR (hIR) (read-out: IR pIC50 (converted)) was below 100 nM each time.
